{
  "source": "patent US20250179040A1",
  "about": "“HISTAMINE H3 RECEPTOR ANTAGONISTS AND THEIR PHARMACEUTICAL USES” (HANGZHOU BIO-SINCERITY PHARMA-TECH CO., LTD., priority 2022, published 2025)",
  "key": {"histamine H3 receptor": {"molecular_target": "histamine H3 receptor (Homo sapiens, UniProt Q9Y5N1)", "sequence (Q9Y5N1 whole entry, species assumed)": "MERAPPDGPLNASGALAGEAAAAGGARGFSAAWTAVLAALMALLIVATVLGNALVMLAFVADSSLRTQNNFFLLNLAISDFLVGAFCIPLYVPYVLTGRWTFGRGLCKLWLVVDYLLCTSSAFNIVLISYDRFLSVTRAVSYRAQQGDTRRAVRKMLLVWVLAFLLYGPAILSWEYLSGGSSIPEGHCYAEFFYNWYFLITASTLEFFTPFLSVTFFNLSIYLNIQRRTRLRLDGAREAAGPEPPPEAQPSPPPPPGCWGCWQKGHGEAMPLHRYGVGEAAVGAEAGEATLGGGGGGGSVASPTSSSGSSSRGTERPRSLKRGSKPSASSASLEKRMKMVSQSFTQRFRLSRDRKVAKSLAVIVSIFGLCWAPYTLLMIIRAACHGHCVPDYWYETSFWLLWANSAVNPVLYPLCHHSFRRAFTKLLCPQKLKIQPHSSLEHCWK", "assay": "FLPPR assay, antagonistic activity on histamine H3 receptor", "format": "cell-based", "description": "The FLPPR assay (NIH Assay Guidance Manual: HTS Assay Validation-Section 4.3. Analysis (Potency), htpps://www.ncbi.nlm.nih.gov/books/NBK83783) was performed using SUVN-G3031 as a positive control, and 21 target compounds were tested for the antagonistic activity target to histamine H3 receptor."}, "hERG channel": {"molecular_target": "hERG channel (Homo sapiens, UniProt Q12809)", "sequence (Q12809 whole entry)": "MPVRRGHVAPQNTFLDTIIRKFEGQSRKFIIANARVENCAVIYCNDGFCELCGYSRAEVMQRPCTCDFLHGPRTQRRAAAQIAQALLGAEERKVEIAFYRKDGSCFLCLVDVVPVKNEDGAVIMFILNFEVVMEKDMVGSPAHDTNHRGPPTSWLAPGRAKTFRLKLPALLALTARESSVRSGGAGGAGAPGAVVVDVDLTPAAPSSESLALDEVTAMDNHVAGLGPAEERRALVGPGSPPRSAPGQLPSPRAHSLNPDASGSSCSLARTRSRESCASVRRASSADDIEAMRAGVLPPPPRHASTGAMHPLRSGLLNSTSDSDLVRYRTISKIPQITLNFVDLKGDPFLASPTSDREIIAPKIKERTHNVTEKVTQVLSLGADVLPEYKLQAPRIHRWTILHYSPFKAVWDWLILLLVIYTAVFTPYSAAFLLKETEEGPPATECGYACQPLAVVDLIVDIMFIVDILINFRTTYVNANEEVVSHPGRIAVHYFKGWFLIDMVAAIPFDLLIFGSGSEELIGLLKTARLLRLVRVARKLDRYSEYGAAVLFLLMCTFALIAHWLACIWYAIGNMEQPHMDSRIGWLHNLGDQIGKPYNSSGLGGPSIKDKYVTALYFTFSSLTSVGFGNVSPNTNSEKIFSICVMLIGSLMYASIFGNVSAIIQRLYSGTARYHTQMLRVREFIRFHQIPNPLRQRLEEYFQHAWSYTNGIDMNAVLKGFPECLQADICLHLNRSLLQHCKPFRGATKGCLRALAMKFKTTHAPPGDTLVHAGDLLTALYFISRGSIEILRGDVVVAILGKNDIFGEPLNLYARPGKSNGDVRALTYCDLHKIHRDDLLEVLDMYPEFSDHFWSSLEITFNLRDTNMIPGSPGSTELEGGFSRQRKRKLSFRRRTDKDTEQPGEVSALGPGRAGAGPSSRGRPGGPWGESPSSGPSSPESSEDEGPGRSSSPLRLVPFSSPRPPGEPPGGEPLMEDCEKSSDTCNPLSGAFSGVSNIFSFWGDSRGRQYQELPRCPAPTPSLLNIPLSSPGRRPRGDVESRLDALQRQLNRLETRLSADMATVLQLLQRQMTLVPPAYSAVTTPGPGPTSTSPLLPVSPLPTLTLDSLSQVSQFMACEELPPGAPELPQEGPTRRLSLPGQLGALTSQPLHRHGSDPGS", "assay": "in vitro", "conditions": "Average inhibition rate (%) on hERG channel", "description": "In cardiomyocytes, inhibition of the delayed rectifier potassium current (IKr) channel protein encoded by the human Ether-a-go-go Related Gene (hERG) is the most important mechanism by which drugs lead to prolongation of the QT interval. hERG is characterized by a specific molecular structure, which allows it to be inhibited by different structures, leading to severe arrhythmias. Statistically, 25-40% of lead compounds show varying degrees of hERG-related toxicity. Therefore, early evaluation of the effects of compounds on hERG is crucial in the drug development process.\nThe inhibition rate of compounds on hERG channels was examined by manual membrane clamp technique on HEK293 cell line which is stably expressing hERG ion channels."}, "CCI model rats": {"tested_on": "CCI model rats", "assay": "Analgesic effect, chronic constriction injury (CCI) model, mechanical withdrawal threshold", "format": "in vivo, SD rats", "description": "Exposing the sciatic nerve on male SD rats' (180-200 g) right hind leg, in the anterior segment where the sciatic nerve is about to bifurcate, use sterile chromic gut thread (No. 4, 0.15 mm in diameter) to ligate 4 loops loosely, with each loop 1-2 mm apart, and suture the muscle and skin to establish the chronic constriction injury (CCI) model. In the sham-operated group, only the sciatic nerve was exposed without ligation, and the muscle and skin were sutured. The mechanical withdrawal threshold was detected by electronic analgesia meter (IITC-2391) on the 7th day for 2 consecutive days.\nThe CCI model rats with stabilized mechanical withdrawal thresholds were randomly divided into five groups, named model group (model), pregabalin group (Pre, 30 mg/kg), BIOS-B-12 compound group (3 mg/kg), BIOS-B-12 compound group (1 mg/kg), and BIOS-B-12 compound group (0.3 mg/kg), and were administered at 1 mL/100 g by gavage, and the same column of saline was gavaged in Sham an model group. The basic value was determined before drug administration, and the mechanical withdrawal thresholds were detected at 0.5 h, 1 h, 2 h, 4 h, 6 h, and 24 h after a single drug administration, and the p value was calculated by ANOVA with T-test.\nThe CCI model rats with stabilized mechanical withdrawal thresholds were randomly divided into three groups, named model group (model), pregabalin group (Pre, 30 mg/kg), and BIOS-B-14 compound group (1 mg/kg), and were administered at 1 mL/100 g by gavage, and the same column of saline was gavaged in Sham and model group. The basic value was determined before drug administration, and the mechanical withdrawal thresholds were detected at 0.5 h, 1 h, 2 h, 4 h, and 6 h after a single drug administration, and the p value was calculated by ANOVA with T-test."}, "[1]": {"tested_on": "histamine-induced scratching", "assay": "Antipruritic ability, histamine-induced scratching in mice", "format": "in vivo, C57BL/6J mice", "description": "The C57BL/6J male mice, with 6-8 weeks old, were randomly divided into model group (Model), BIOS-B-12 compound group (10 mg/kg), BIOS-B-18 compound group (10 mg/kg) and dexamethasone group (Dex, 3 mg/kg), with 7 animals in each group. The mice were injected subcutaneously with 500 μg/50 μL histamine at the back of the neck after the administration of dexamethasone for 1 h, BIOS-B-12 for 4 h, and BIOS-B-18 for 1 h, respectively, and immediately observed for 30 min. The number of scratched was recorded and the inhibition rate was calculated as (Model-Compound)/Model×100%."}, "[2]": {"conditions": "BIOS-B-12 3, 1, 0.3 mg/kg vs pregabalin 30 mg/kg, FIG. 1 study"}},
  "data": [
    {"compound": "O=C(CN1CCN(C2CCC2)CC1)Nc1ccc(OC2CC(N3CCCCC3)C2)cc1", "note": "(stereo not drawn) [BIOS-B-12, 2-(4-cyclobutylpiperazin-1-yl)-N-(4-(3-(piperidin-1-yl)cyclobutoxy)phenyl)acetamide]", "values": [
      {"measurement": "inhibition at 0.005 µM", "setting": "histamine H3 receptor; read-out: % Inh-AVERAGE @ 5 nM", "result": 99.1, "unit": "%"},
      {"measurement": "inhibition at 0.05 µM", "setting": "histamine H3 receptor; read-out: % Inh-AVERAGE @ 50 nM", "result": 98.8, "unit": "%"},
      {"measurement": "inhibition at 10 µM", "setting": "hERG channel", "result": 2.06, "unit": "%"},
      {"measurement": "mechanical withdrawal thresholds vs model group", "setting": "CCI model rats; 0.3 mg/kg single dose by gavage, 1 h to 2 h after administration, P<0.05, FIG. 1", "result": "significantly different"},
      {"measurement": "mechanical withdrawal thresholds vs model group", "setting": "CCI model rats; 1 mg/kg single dose by gavage, 0.5 h to 6 h after administration, P<0.01, FIG. 1", "result": "significantly different"},
      {"measurement": "mechanical withdrawal thresholds vs model group", "setting": "CCI model rats; 3 mg/kg single dose by gavage, 0.5 h to 24 h after administration, P<0.01, FIG. 1", "result": "significantly different"},
      {"measurement": "level of analgesia compared with pregabalin", "setting": "CCI model rats; [2]", "result": "superior to that of pregabalin"},
      {"measurement": "period of analgesia time compared with pregabalin", "setting": "CCI model rats; [2]", "result": "longer period of analgesia time"},
      {"measurement": "mechanical withdrawal thresholds in the CCI model rats, dose dependence", "setting": "CCI model rats; single dose at 3, 1 and 0.3 mg/kg, FIG. 1", "result": "dose-dependently increasing"},
      {"measurement": "number of histamine-induced scratched in mice", "setting": "[1]; 10 mg/kg", "result": "reduced"},
      {"measurement": "antipruritic effect compared with positive control dexamethasone", "setting": "[1]; 10 mg/kg vs dexamethasone 3 mg/kg", "result": "more effective than the positive control"},
      {"measurement": "Inhibition Rate (%) of number of scratches", "setting": "[1]; BIOS-B-12 10 mg/kg 4 h, BIOS-B-18 10 mg/kg 1 h, Dex 3 mg/kg 1 h before histamine 500 μg/50 μL s.c., observed 30 min, (Model-Compound)/Model×100%", "result": 36.6, "unit": "%"}
    ]}
  ]
}
